Data on eight compounds can be found in ChEMBL document CHEMBL1137273, “Xanthine mimetics as potent dipeptidyl peptidase IV inhibitors” (Bioorg Med Chem Lett, 2006).

Structures are written as SMILES.

Test [1] deals with T1, Dipeptidyl peptidase 4 (Homo sapiens, UniProt P27487). Put plainly: Inhibition of h-DPPIV.
For another test, the target named is Dipeptidyl peptidase 8 (Homo sapiens, UniProt Q6V1X1). The test is described as follows: Inhibition of h-DPP8.
The target of a further test is T2, Prolyl endopeptidase (Homo sapiens, UniProt P48147).
T2 sequence (P48147 whole entry): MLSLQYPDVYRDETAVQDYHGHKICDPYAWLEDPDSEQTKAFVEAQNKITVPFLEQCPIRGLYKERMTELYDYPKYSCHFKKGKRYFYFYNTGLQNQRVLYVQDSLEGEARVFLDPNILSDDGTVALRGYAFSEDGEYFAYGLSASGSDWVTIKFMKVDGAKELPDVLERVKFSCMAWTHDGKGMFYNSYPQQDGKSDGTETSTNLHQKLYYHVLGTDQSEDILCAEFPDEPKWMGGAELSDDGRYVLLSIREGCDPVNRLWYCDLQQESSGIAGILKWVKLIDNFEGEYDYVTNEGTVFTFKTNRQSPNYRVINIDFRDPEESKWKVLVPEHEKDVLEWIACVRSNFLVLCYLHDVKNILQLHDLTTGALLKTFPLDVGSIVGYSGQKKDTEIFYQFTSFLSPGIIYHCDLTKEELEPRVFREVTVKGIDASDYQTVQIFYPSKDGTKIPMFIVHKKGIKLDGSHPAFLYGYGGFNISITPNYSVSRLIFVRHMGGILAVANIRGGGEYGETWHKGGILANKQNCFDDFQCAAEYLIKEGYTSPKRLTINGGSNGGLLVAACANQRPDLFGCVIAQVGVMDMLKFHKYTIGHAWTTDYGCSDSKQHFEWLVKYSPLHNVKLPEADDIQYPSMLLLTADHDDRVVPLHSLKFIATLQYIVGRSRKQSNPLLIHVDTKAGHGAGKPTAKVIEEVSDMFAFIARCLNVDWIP
The test is described as follows: Inhibition of h-POP.

For test [2], the target named is T1, Dipeptidyl peptidase 4. Put plainly: Human DPPIV plasma binding (0% plasma). It counts as cell-free.
For another test, the target named is Dipeptidyl peptidase 9 (Homo sapiens, UniProt Q86TI2). Put plainly: Inhibition of h-DPP9.
Sequence of Dipeptidyl peptidase 9 (Q86TI2 whole entry): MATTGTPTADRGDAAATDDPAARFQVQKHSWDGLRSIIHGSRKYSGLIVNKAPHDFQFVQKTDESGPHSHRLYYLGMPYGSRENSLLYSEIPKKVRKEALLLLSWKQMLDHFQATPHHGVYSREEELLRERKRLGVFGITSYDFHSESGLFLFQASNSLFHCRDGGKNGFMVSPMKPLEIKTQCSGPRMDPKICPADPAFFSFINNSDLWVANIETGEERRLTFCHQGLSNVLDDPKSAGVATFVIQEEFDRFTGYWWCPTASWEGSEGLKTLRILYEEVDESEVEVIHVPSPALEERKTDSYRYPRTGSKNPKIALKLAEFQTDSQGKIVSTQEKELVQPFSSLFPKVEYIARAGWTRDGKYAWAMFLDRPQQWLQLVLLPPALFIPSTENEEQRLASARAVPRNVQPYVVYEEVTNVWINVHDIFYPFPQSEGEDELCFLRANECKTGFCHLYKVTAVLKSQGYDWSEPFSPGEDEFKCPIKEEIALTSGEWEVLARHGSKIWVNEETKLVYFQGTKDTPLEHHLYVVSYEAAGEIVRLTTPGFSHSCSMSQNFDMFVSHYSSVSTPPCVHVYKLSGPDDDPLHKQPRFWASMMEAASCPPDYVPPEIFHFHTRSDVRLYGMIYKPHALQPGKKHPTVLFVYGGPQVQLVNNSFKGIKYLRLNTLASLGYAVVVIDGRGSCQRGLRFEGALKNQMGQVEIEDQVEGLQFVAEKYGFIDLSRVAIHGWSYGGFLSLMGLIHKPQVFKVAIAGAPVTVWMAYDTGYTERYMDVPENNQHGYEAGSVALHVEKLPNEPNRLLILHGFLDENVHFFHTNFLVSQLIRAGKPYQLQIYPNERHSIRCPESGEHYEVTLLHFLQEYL

Broadly, the Ki is a dissociation constant, usually derived from enzyme kinetics or from competition with a known ligand. Read a high Ki as a looser hold on the target. One may read the IC50 as the concentration at which inhibition is half-maximal. Higher therefore signals weaker potency in that assay.

Sequence of Dipeptidyl peptidase 8 (Q6V1X1 whole entry): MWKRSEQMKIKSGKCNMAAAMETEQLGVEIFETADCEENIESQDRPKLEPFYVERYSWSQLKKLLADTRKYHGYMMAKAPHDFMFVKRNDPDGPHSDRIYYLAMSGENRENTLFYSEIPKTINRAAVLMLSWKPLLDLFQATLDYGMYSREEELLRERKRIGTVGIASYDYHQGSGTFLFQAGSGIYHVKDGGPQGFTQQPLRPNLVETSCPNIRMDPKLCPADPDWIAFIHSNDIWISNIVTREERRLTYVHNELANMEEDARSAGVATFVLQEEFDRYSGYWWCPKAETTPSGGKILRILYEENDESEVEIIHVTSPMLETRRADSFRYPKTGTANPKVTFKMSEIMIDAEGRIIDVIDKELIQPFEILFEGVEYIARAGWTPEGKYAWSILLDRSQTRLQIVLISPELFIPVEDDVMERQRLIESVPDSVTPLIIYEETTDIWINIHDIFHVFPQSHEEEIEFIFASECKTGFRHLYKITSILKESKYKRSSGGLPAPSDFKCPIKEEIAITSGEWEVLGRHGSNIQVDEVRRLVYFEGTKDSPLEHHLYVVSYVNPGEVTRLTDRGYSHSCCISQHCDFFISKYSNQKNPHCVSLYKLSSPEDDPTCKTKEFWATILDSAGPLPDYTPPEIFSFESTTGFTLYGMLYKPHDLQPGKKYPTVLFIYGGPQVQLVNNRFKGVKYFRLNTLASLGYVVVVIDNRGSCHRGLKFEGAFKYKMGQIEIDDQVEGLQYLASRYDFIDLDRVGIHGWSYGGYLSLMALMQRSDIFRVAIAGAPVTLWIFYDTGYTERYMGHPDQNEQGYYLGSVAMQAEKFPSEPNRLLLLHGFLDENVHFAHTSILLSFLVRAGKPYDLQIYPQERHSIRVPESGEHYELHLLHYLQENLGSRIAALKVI
T1 sequence (P27487 whole entry): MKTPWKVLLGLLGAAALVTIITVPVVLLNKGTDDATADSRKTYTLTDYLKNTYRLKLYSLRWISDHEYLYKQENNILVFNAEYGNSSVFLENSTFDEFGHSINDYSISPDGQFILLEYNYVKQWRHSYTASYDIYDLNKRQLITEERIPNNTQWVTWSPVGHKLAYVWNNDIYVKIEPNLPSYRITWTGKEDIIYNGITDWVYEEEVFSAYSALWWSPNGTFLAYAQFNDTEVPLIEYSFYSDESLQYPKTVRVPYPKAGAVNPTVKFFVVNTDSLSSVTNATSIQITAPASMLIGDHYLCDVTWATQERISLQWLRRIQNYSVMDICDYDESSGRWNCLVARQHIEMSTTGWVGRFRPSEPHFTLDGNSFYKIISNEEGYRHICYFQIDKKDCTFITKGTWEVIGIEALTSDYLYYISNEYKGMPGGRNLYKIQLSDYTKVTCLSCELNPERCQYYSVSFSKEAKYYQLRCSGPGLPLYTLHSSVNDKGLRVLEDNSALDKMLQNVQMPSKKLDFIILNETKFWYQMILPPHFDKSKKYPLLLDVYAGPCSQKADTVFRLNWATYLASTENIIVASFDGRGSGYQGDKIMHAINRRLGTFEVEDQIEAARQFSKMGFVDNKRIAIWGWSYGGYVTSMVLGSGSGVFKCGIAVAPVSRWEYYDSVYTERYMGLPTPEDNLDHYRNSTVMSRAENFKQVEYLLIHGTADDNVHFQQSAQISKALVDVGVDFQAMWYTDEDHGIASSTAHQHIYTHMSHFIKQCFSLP

Compound `Cn1ncc2c(nc(N3CCCC(N)C3)n2Cc2ccccc2C#N)c1=O` (stereo not drawn) had a Ki at Dipeptidyl peptidase 4 [1] of 260 nM.
On to `Cn1ncc2nc(N3CCCC(N)C3)n(Cc3cccc(CC#N)c3)c2c1=O` (stereo not drawn), for which the inhibition constant (Ki) at Dipeptidyl peptidase 8 is above 3000 nM; at Prolyl endopeptidase, above 30000 nM; on Dipeptidyl peptidase 4 [1], 11 nM.
Regarding `Cn1c(=O)c2nc(N3CCCC(N)C3)n(Cc3ccccc3C#N)c2c(=O)n1C` (stereo not drawn), on Prolyl endopeptidase, the Ki is above 30000 nM.
Take `Cn1c(=O)c2c(nc(N3CCCC(N)C3)n2Cc2ccccc2C#N)n(C)c1=O` (stereo not drawn): the Ki at Dipeptidyl peptidase 8 is above 30000 nM; at Dipeptidyl peptidase 4 [2], 2 nM; at Prolyl endopeptidase, above 30000 nM; at Dipeptidyl peptidase 4 [1], 2 nM.
Turning to `CN1C(=O)c2nc(N3CCCC(N)C3)n(Cc3ccccc3C#N)c2C1=O` (stereo not drawn), the inhibition constant Ki was above 3000 nM on Dipeptidyl peptidase 9 and above 30000 nM at Prolyl endopeptidase.
As to `NC1CCCN(c2nc3c(n2Cc2ccccc2C(F)(F)F)C(=O)c2ccccc2C3=O)C1` (stereo not drawn), the Ki on Dipeptidyl peptidase 8 was above 30000 nM; at Dipeptidyl peptidase 9, above 3000 nM; at Dipeptidyl peptidase 4 [1], 25 nM.
On to `Cn1ncc2nc(N3CCCC(N)C3)n(Cc3ccccc3C#N)c2c1=O` (stereo not drawn), for which the Ki on Dipeptidyl peptidase 8 is above 3000 nM; at Prolyl endopeptidase, above 30000 nM; on Dipeptidyl peptidase 4 [1], 5 nM.
As to `CN1C(=O)C=C(N2CCC[C@@H](N)C2)C(Cc2ccccc2C#N)C1=O` (stereo partly drawn), on Dipeptidyl peptidase 4 [1], the IC50 stood at 4 nM. That is a single-digit nanomolar value.
